Converted amounts (≈) assume the structure as drawn. Read-outs that look alike come from different tables or passages of the source.
Key:
[1] = test system: RSV A A2; format: cell-based, Respiratory Synsycitial virus; details: MA-104 cells, continuous exposure
Experimental: (§1) The antiviral activity of barbituric acid analogs was also evaluated under conditions where the indicator cells to which virus had been previously added and then continuously exposed to different concentrations of C1 for the duration of the experiments. Eight different doses of C1 ranging from 100 μg/ml to half-log dilutions down to 0.032 μg/ml were added to the indicator cells after adding the indicated virus. This virus-cell combination was continuously exposed to C1 until untreated control wells developed a cytopathic effect (CPE) usually after 4 to 6 days of incubation at 37° C. At the end of incubation period at 37° C., the resulting cytopathic effect (CPE) in control and test wells was assessed by visual and a Neutral Red Dye assay.
(§2) Results of CPE versus concentration of C1 were plotted on a semi-log paper and the dose of C1 that caused a 50% inhibition of virus mediated CPE (EC50) was calculated.

[2] = test system: Flu B Shanghai virus; test: Virucidal activity: virus pre-incubated with compound 1 h, applied to MDCK cells 1 h, removed, CPE after 6 days; format: cell-based, influenza B virus
Experimental: For each test, a stock solution of the lead Compound C1 was made by first dissolving it in a small amount (50-100 microliters) of absolute ethanol (ETOH) followed by addition of growth nutrient medium to a final volume of 1 ml to bring the stock concentration of 20 mg/ml. It was tested at a concentration of 100 μg/ml, with half-log dilutions down to 0.032 μg/ml.
The compound C1 and the virus being tested were incubated together at 8 different concentrations for 1 hour at 37° C. Then virus/compound mixture applied to established cultured MDCK (Madin-Darby canine kidney) cells for 1 hour at 37° C. After 1 hour, the Virus/compound were removed, and replaced with new virus/compound free medium, and the indicator cells were further incubated for 6 days. Virus that survived the one hour pre-incubation and one hour exposure to indicator cells caused cytopathic effect (CPE) development. Results were evaluated by microscopic inspection (visual) as well as a spectrophotometic Neutral Red Dye Assay. The values shown represent the concentration (μg/ml) of C1 that caused a 50% virucidal effect (EC50). […]
The EC50 values were calculated by extrapolation from a plot of concentration versus virucidal activity data on semi-log paper. This allowed us to quantify complete virus killing of a small amount of virus (about 50-100 cell culture infectious doses).

[3] = test system: Influenza A/New Caledonia/20/99 (H1N1); test: ETOH vs DMSO comparison: compound + virus 1 h at room temperature, on indicator cells 1 hour then removed, neutral red; format: cell-based, influenza A virus; details: exposed to c1 + virus for 1 hour
[4] = test system: Influenza A/California/7/04 (H3N2); test: ETOH vs DMSO comparison: compound + virus 1 h at room temperature, then left on indicator cells 3 days, neutral red; format: cell-based, influenza A virus; details: exposed to c1 + virus for 3 days
[5] = test system: Flu A (H5N1) Vietnam/1203/2004 H; format: cell-based, influenza A virus; details: MDCK cells, continuous exposure
[6] = test system: Rhinovirus HGP; format: cell-based; details: HeLa Ohio-1 cells, continuous exposure
Experimental: as §1, §2

[7] = test system: Measles Chicago; format: cell-based; details: CV-1 cells, continuous exposure
Experimental: as §1, §2

[8] = test system: PIV 14702; format: cell-based, Parainfluenza virus; details: MA-104 cells, continuous exposure
Experimental: as §1, §2

[9] = test system: Flu A (H5N1); format: cell-based, influenza A virus; details: virus treated one hour
[10] = test system: Influenza A/New Caledonia/20/99 (H1N1); test: ETOH vs DMSO comparison: compound + virus 1 h at room temperature, then left on indicator cells 3 days, neutral red; format: cell-based, influenza A virus; details: exposed to c1 + virus for 3 days
[11] = test system: Flu B Shanghai/361/02; format: cell-based, influenza B virus; details: MDCK cells, continuous exposure
Experimental: as §1, §2

[12] = test system: Influenza A/California/7/04 (H3N2); test: ETOH vs DMSO comparison: compound + virus 1 h at room temperature, on indicator cells 1 hour then removed, neutral red; format: cell-based, influenza A virus; details: exposed to c1 + virus for 1 hour
[13] = test system: Flu A (H3N2); test: Virucidal activity: virus pre-incubated with compound, applied to MDCK cells 1 h, removed, CPE after 6 days; format: cell-based, influenza A virus
[14] = test system: SARS (urbani); format: cell-based, Severe Acute Respiratory Syndrome (SARS) virus

Q: For `CCCCN1C(=O)CC(=O)N(CCCC)C1=S` [Compound C1, 4,6(1H, 5H)-Pyrimidinedione, 1,3-dibutyldihydro-2-thioxo], which EC50 ([1]; Neutral Red) is on record?
A: 30 µg/mL

Q: And the EC50 ([1]; Visual)?
A: 30 µg/mL

Q: And the “dose causing 50% inactivation of the virus” value (shortened to “dose causing 50% inactivation”) ([2]; Neutral red dye assay)?
A: 37 µg/mL

Q: And the “dose causing 50% inactivation” value ([2]; visual method)?
A: 42 µg/mL

Q: And the “Increase virucidal activity of C1 in DMSO” value (shortened to “Increase virucidal activity”) ([3]; DMSO versus ETOH)?
A: 140%

Q: What about the “EC50 of C1 in DMSO” value ([3]; dissolved in DMSO, neutral red) of the same compound?
A: 30.0 µg/mL

Q: What about the “EC50 of C1 in ETOH” value ([3]; dissolved in ETOH, neutral red) of the same compound?
A: 42.0 µg/mL

Q: What about the “Increase virucidal activity” value ([4]; DMSO versus ETOH) of the same compound?
A: 0%

Q: And the “EC50 of C1 in DMSO” value ([4]; dissolved in DMSO, neutral red)?
A: >1.9 µg/mL

Q: And the “EC50 of C1 in ETOH” value ([4]; dissolved in ETOH, neutral red)?
A: >1.8 µg/mL

Q: And the EC50 ([5]; Neutral Red)?
A: 3 µg/mL (≈ 11.7 µM)

Q: And the EC50 ([5]; Visual)?
A: 3 µg/mL (≈ 11.7 µM)

Q: What about the EC50 ([6]; Neutral Red) of the same compound?
A: 30 µg/mL

Q: What about the EC50 ([6]; Visual) of the same compound?
A: 30 µg/mL

Q: What about the EC50 ([7]; Neutral Red) of the same compound?
A: 40 µg/mL

Q: What about the EC50 ([7]; Visual) of the same compound?
A: 30 µg/mL

Q: What about the EC50 ([8]; Neutral Red) of the same compound?
A: 30 µg/mL

Q: And the EC50 ([8]; Visual)?
A: 30 µg/mL

Q: And the “dose that caused a 50% inactivation (EC50)” value ([9]; Neutral red assay, after 6 days)?
A: 37 µg/mL

Q: And the “dose that caused a 50% inactivation (EC50)” value ([9]; visual method, % CPE after 6 days)?
A: 6.0 µg/mL

Q: And the “Increase virucidal activity” value ([10]; DMSO versus ETOH)?
A: 200%

Q: What about the “EC50 of C1 in DMSO” value ([10]; dissolved in DMSO, neutral red) of the same compound?
A: >2.6 µg/mL

Q: And the “EC50 of C1 in ETOH” value ([10]; dissolved in ETOH, neutral red)?
A: >4.5 µg/mL

Q: And the EC50 ([11]; Neutral Red)?
A: 3 µg/mL

Q: And the EC50 ([11]; Visual)?
A: 3 µg/mL

Q: And the “Increase virucidal activity” value ([12]; DMSO versus ETOH)?
A: 220%

Q: And the “EC50 of C1 in DMSO” value ([12]; dissolved in DMSO, neutral red)?
A: 20.0 µg/mL

Q: What about the “EC50 of C1 in ETOH” value ([12]; dissolved in ETOH, neutral red) of the same compound?
A: 42.0 µg/mL

Q: And the “inactivation of the virus by treatment” value ([13]; FIG. 2)?
A: virtually complete inactivation

Q: And the “dose that caused a 50% inactivation (EC50)” value ([13]; visual method, virus treated for 4 hours (so in the source), MDCK indicator cells)?
A: 5.5 µg/mL

Q: And the “dose causing 50% inactivation” value ([14]; Neutral Red dye assay)?
A: 53 µg/mL

Q: What about the “dose causing 50% inactivation” value ([14]; visual method) of the same compound?
A: 12 µg/mL

From patent publication US20070259903A1 (priority 2006, published 2007)
